# Laboratory results taken from PMC5570656 (Journal of medicinal chemistry, 2017).
# Counter-ions that a name gives are not always drawn.
# Experiments:
# [1] = in words
# nNOS = nNOS (Homo sapiens, UniProt P29475); test: Stability of stored compound solutions; type: physicochemical; details: solutions stored for longer periods of time (ca. one week)
# [2] = test system: 45 different CNS targets and receptors; details: of 45 targets, cited from earlier work
# Caco-2 = details: in words, previously designed inhibitors; cited from earlier work
# bovine eNOS = bovine eNOS (Bos taurus, UniProt P29473); details: ratio of respective Ki values
# murine macrophage iNOS = murine macrophage iNOS (Mus musculus, UniProt P29477); details: ratio of respective Ki values
# [3] = rats, in words, earlier work; cited from earlier work
# [4] = mice, in words, earlier work; cited from earlier work
# Sequence of nNOS (P29475 whole entry): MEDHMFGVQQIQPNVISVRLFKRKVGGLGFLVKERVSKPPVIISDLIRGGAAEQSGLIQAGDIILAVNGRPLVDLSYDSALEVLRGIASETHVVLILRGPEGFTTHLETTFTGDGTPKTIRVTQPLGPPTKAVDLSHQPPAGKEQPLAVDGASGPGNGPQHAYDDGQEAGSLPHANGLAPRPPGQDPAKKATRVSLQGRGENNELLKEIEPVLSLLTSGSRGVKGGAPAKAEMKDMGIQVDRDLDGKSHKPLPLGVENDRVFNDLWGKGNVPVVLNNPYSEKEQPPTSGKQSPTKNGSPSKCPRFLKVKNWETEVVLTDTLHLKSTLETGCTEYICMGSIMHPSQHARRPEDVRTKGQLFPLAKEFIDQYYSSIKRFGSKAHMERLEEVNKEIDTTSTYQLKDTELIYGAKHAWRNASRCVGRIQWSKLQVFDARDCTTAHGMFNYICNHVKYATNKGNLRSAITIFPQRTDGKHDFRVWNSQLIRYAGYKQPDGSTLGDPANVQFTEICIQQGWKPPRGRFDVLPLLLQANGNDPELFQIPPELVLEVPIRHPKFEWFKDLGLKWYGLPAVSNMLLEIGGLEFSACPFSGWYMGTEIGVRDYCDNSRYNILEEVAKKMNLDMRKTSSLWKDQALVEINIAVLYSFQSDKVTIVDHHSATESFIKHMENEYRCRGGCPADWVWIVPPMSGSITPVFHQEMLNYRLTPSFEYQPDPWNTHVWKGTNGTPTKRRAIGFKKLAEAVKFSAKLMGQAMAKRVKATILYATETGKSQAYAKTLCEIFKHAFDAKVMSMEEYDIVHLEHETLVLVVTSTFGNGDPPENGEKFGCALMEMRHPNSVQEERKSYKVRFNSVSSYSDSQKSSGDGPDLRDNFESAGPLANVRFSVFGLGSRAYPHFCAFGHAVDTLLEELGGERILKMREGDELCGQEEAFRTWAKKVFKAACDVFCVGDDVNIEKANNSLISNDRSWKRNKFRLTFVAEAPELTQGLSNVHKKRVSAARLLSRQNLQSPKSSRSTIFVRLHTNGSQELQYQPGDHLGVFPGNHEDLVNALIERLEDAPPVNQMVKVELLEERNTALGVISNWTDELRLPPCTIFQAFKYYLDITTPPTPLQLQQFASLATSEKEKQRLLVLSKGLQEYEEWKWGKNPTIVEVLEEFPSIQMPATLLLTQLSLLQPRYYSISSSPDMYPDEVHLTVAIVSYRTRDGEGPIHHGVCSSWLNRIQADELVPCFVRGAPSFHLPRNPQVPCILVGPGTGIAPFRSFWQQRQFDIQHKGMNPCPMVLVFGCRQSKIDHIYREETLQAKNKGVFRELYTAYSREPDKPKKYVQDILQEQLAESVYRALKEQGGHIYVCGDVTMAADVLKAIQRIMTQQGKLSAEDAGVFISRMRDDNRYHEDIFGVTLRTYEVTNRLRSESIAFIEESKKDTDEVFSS
# Sequence of murine macrophage iNOS (P29477 whole entry): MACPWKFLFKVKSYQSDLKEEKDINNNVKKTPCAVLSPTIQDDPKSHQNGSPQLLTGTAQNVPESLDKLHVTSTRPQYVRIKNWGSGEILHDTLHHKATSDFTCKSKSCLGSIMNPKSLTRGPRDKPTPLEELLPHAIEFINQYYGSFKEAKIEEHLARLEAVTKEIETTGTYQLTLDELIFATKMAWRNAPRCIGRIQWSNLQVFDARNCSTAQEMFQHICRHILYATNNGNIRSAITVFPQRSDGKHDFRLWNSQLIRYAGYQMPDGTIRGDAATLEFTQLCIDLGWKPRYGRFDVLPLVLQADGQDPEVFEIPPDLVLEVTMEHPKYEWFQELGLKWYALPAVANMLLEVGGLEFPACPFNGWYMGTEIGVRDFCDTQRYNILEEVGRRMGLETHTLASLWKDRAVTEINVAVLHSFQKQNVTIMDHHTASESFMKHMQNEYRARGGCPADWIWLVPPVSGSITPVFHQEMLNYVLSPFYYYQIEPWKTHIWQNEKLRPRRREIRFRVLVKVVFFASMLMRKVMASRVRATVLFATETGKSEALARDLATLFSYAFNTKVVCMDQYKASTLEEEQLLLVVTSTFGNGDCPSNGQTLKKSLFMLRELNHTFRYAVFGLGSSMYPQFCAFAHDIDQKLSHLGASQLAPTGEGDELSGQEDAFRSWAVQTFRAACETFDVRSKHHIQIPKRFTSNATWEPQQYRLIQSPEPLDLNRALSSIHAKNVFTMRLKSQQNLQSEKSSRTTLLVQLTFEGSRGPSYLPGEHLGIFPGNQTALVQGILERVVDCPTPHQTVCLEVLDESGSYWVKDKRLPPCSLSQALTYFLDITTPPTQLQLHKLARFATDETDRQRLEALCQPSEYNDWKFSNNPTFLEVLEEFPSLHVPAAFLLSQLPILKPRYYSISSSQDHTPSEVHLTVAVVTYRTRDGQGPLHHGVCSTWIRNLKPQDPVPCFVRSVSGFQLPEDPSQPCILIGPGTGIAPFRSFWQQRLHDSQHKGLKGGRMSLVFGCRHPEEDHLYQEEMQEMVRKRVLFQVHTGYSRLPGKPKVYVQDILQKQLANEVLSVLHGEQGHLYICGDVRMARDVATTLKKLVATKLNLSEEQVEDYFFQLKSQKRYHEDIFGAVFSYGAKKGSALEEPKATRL
# Sequence of bovine eNOS (P29473 whole entry): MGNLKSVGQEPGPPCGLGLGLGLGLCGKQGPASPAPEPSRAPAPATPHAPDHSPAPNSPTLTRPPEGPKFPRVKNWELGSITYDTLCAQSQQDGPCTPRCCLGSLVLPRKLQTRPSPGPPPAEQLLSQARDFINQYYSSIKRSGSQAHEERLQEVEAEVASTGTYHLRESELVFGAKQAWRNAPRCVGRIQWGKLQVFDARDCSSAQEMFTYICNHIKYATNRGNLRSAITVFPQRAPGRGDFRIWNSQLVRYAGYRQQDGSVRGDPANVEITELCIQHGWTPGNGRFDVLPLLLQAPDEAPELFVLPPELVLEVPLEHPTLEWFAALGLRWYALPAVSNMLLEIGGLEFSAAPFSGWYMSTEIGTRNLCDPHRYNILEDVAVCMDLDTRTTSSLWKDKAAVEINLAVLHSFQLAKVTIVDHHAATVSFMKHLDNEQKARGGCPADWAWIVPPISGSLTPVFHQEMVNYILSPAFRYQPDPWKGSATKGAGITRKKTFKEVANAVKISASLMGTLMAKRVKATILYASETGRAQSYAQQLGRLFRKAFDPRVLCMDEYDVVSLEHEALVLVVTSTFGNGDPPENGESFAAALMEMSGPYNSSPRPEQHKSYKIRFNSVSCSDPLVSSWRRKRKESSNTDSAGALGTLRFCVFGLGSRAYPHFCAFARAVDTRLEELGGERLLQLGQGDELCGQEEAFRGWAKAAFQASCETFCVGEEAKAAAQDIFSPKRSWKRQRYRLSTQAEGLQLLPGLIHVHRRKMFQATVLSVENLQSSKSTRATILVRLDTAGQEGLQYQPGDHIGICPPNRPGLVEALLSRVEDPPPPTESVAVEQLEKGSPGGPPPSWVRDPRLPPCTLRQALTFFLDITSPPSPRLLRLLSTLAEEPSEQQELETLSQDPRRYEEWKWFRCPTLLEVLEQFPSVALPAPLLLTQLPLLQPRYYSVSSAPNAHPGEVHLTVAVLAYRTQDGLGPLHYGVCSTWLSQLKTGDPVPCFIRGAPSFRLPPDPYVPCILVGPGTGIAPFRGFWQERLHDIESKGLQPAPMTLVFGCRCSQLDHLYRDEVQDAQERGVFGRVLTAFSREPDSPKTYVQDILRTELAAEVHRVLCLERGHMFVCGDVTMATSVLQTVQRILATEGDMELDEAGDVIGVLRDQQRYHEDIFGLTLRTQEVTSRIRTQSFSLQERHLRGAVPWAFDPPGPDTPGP
smiles,measurement,setting,value
"N#Cc1cccc(NCc2ccc3ccc(N)nc3c2)c1 [Compound 7, 3-(((2-Aminoquinolin-7-yl)methyl)amino)benzonitrile Dihydrochloride]",solubility,[1],poor
"CN(C)c1cccc(CCNCc2ccc3ccc(N)nc3c2)c1 [Compound 14, 3-(Dimethylamino)phenethyl)amino)methyl)quinolin-2-amine Trihydrochloride]",stability of solutions,nNOS,lost their nNOS inhibitory activity
CNCc1cc(OCc2ccc3ccc(N)nc3c2)ccc1Cl [Compound 6],PDSP number of targets classified Moderate,[2]; 100-300 nM,3
same,PDSP number of targets classified Insignificant,[2]; <50% bound at 10 μM,22
same,PDSP number of targets classified Weak,[2]; >300 nM,17
same,PDSP number of targets classified Concerning,[2]; Ki <100 nM,3
same,Caco-2 permeability,Caco-2,poor
"CN(C)c1cccc(CNCc2ccc3ccc(N)nc3c2)c1 [Compound 12, 7-(((3-(Dimethylamino)benzyl)amino)methyl)quinolin-2-amine Trihydrochloride]",Selectivity rn/be,bovine eNOS,16
same,Selectivity rn/mi,murine macrophage iNOS,71
Nc1ccc2ccc(CCNCCc3cccc(Cl)c3)cc2n1 [Compound 5],brain penetration,[3],brain penetration
Nc1ccc2ccc(CCNCCc3cccc(F)c3)cc2n1 [Compound 4],oral bioavailability,[4],good
